Measurements published in US11844790B2, “Methods of treating hidradenitis suppurativa” (CHEMOCENTRYX, INC., priority 2020, dated 2023).
Marks after values point to notes of the source that are not given here.

Columns and labels:
[1] = Solubility of Avacopan as a function of pH; assay type: physicochemical; details: pH value of 3 or above (gastric fluid)
[2] = tested on: patients with moderate-to-severe HS; details: human, in vivo
Method: (§1) The study is a randomized, double-blind, placebo-controlled, three group Phase 2 trial in approximately 390 subjects with moderate to severe hidradenitis suppurativa (Hurley stage II or III). Subjects will be randomized 1:1:1 to a treatment of 10 mg Avacopan twice daily, 30 mg Avacopan twice daily or placebo for 12 weeks. Other systemic treatments for HS including anti-TNF-αtreatments are prohibited. Stable antibiotic therapy with doxycycline or minocycline is allowed as specified in the protocol. Subjects treated with 10 mg or 30 mg twice daily during the blinded, placebo-controlled 12-week treatment period will be followed by an additional 24-week, active treatment period during which they will continue to receive the same dose regimen, either 10 mg or 30 mg Avacopan twice daily. Subjects on placebo who complete the blinded, placebo-controlled 12-week period will be re-randomized 1:1 to receive 10 mg or 30 mg Avacopan twice daily during the 24-week active treatment period. During the 24-week active treatment period the treatment assignment to 10 mg or 30 mg twice daily will not be disclosed to the patient, study personnel at the site or the sponsor. Thereafter, all subjects will be followed without study drug for 8 weeks before they exit the study.
(§2) The primary objectives of this clinical trial include: • 1. Evaluation of the efficacy of Avacopan compared to placebo in subjects with Hurley Stage II or III hidradenitis suppurativa (HS) based on subjects achieving a Hidradenitis Suppurativa Clinical Response (HiSCR) after 12 weeks of treatment. HiSCR is defined as at least a 50% reduction in abscess and inflammatory nodule (AN) count with no increase in abscess count and no increase in draining fistula count at Week 12 relative to baseline. • 2. Evaluation of the safety of Avacopan compared to placebo in these subjects based on the adverse event incidence, changes from baseline in laboratory parameters, and vital signs Secondary Objectives
The majority of TEAEs were related to underlying HS and were mild to moderate.

[3] = tested on: patients with moderate HS (Hurley Stage II) or severe HS (Hurley Stage III); experiment: Phase II AURORA clinical trial, Hidradenitis Suppurativa Clinical Response (HiSCR) and secondary efficacy endpoints; assay type: in vivo, human; details: for HiSCR (%) / HiSCR n/N / HiSCR Δ % vs placebo: week 12
Method: as §1
Subjects will be randomized 1:1:1 to receive 10 mg Avacopan twice daily, 30 mg Avacopan twice daily or matching placebo for 12 weeks in a double-blind, placebo-controlled manner.
as §2
The secondary objectives of this study include: • 1. Evaluation of the efficacy of Avacopan compared to placebo in these subjects include: • a. HiSCR: proportion of subjects achieving HiSCR by each timepoint, • b. The subject's global assessment of skin pain numeric rating scale (NRS), • c. The modified Sartorius score, and • d. Achieving an AN count of 0, 1, or 2 • 2. Assessment of subject reported outcomes including health-related quality-of-life changes based on the Short Form-36 version 2 (SF-36 v2), the EuroQOL-5D-5L (EQ-5D-5L), Hidradenitis Suppurativa Quality of Life (HiSQOL) Index, the Dermatology Life Quality Index (DLQI), and the Work Productivity and Activity Impairment Questionnaire: Specific Health Problem (WPAI: SHP) with Avacopan compared to placebo. • 3. Evaluation of the pharmacokinetic profile of Avacopan in subjects with HS. • 4. Evaluation of the safety and efficacy of Avacopan treatment from Day 1 by each timepoint up to Week 44 in subjects with HS. • 5. Evaluation of the efficacy of avacopan compared to placebo in these subjects include: • a. The Sartorius score, International HS Severity Scoring System (IHS4) score, HS Physician Global Assessment (HS-PGA), • b. Proportion of subjects who experienced flare, who experienced loss of response during Period 2, who received oral antibiotic rescue therapy or lesion intervention, and who received disallowed opioid pain therapy, and • c. The duration of flare in days. • 6. Evaluation of health-economic information. Study Treatments
The International Hidradenitis Suppurativa Severity Score (IHS4) is simple to calculate and validated with the use of existing physician-derived outcomes such as HS-PGA, Hurley classification, MSS or Expert Opinion classification) and patient-reported outcome measure (DLQI). […]

[4] = Avacopan 10 mg BID, All patients
[5] = Avacopan 10 mg BID, Hurley Stage II
[6] = Avacopan 10 mg BID, Hurley Stage III
[7] = Avacopan 30 mg BID, All patients
[8] = Avacopan 30 mg BID, Hurley Stage II
[9] = Avacopan 30 mg BID, Hurley Stage III

solubility [1]: normally insoluble
Compound: Cc1ccc(NC(=O)[C@H]2CCCN(C(=O)c3c(C)cccc3F)[C@H]2c2ccc(NC3CCCC3)cc2)cc1C(F)(F)F [Avacopan]
safety profile [2]: favorable safety profile
Serious TEAEs ([2]; 12 weeks): 1.5%
Treatment emergent adverse events (TEAEs) of all types ([2]; 12 weeks): 48.5%
primary endpoint: proportion of all patients achieving HiSCR against placebo ([3]; 10 mg BID and 30 mg BID, combined study population (Hurley Stage II plus III), after 12 weeks): not achieved with statistical significance at either dose level
proportion of all patients achieving HiSCR against placebo ([3]; 30 mg BID, combined study population, after 12 weeks): numerical improvement
HiSCR response against placebo ([3]; 30 mg BID, pre-specified population of Hurley Stage III (severe) HS patients): statistically significant higher response than placebo
HiSCR (%) [3, 4]: (22.4) %
HiSCR n/N [3, 4]: 30/134
HiSCR Δ % vs placebo [3, 4]: −8.2%
HiSCR (%) [3, 5]: (21.4) %
HiSCR n/N [3, 5]: 18/84
HiSCR Δ % vs placebo [3, 5]: −13.8%
HiSCR (%) [3, 6]: (24.0) %
HiSCR n/N [3, 6]: 12/50
HiSCR Δ % vs placebo [3, 6]: 1.8%
HiSCR (%) [3, 7]: (35.1) %
HiSCR n/N [3, 7]: 47/134
HiSCR Δ % vs placebo [3, 7]: 4.4%
HiSCR (%) [3, 8]: (31.0) %
HiSCR n/N [3, 8]: 27/87
HiSCR Δ % vs placebo [3, 8]: −4.3%
HiSCR (%) [3, 9]: (42.6) %
HiSCR n/N [3, 9]: 20/47
HiSCR Δ % vs placebo ([3]; Avacopan 30 mg BID, Hurley Stage III, p = 0.0349): 20.3* %
AN (abscesses and inflammatory nodules) count, % change from baseline to week 12 relative to placebo ([3]; Hurley Stage III patients): Favorable reductions
International HS Severity Score (IHS4), % change from baseline to week 12 relative to placebo ([3]; Hurley Stage III patients): Favorable reductions
abscess count, % change from baseline to week 12 relative to placebo ([3]; Hurley Stage III patients): Favorable reductions
draining fistula count, % change from baseline to week 12 relative to placebo ([3]; Hurley Stage III patients): Favorable reductions
